The results in this text go back to patent US20050164370A1 (priority 2003, published 2005).

For assay [1], the system named is transformed cells TM182-CRE1-ADHIPT5. In kind it is cell-based, yeast. The conditions noted are these: Table 3, TM182-CRE1-ADH-IPT5, 1 μL of 200 ppm DMSO solution per 100 μL, DOHLU+Glu, 30° C. for 24 hours. The protocol: Each of the transformed cells TM182-CYC1-CYC1IPT4, TM182-CYC1-ADHIPT4, TM182-CYC1-CYC1IPT5, TM182-CYC1-ADHIPT5, TM182-CRE1-CYC1IPT4, and TM182-CRE1-ADHIPT5 obtained in Example 16 was inoculated in 200 mL of DOHLU+Gal culture medium, and was pre-cultured at 30° C. for 36 hours. The thus obtained culture solutions were diluted with DOHLU+Glu culture medium so that OD600 became 0.200, and then the diluted ones were further diluted with DOHLU+Glu culture medium at a dilution rate of 1/200 to obtain diluted pre-cultured solutions.
A 96-well assay plate was prepared by filling each well with 1 μL of a DMSO solution of an examinee substance (Abscisic acid or 6-Benzyl aminopurine). In this regard, it is to be noted that the DMSO solution of a examinee substance was prepared so that the concentration thereof became 200 ppm. Simultaneously, an assay plate was prepared by filling each well with 1 μL of DMSO as a blank section.
Each of the diluted pre-cultured solutions was added in a volume of 100 μL per each well of both of the assay plates, and was cultured at 30° C. for 24 hours. After incubation, the turbidity of each well was measured using a plate reader.

Another assay addresses T1, cytokinin receptor AHK3 (Arabidopsis thaliana, UniProt Q9C5U1).
T1 sequence (Q9C5U1 1-1036): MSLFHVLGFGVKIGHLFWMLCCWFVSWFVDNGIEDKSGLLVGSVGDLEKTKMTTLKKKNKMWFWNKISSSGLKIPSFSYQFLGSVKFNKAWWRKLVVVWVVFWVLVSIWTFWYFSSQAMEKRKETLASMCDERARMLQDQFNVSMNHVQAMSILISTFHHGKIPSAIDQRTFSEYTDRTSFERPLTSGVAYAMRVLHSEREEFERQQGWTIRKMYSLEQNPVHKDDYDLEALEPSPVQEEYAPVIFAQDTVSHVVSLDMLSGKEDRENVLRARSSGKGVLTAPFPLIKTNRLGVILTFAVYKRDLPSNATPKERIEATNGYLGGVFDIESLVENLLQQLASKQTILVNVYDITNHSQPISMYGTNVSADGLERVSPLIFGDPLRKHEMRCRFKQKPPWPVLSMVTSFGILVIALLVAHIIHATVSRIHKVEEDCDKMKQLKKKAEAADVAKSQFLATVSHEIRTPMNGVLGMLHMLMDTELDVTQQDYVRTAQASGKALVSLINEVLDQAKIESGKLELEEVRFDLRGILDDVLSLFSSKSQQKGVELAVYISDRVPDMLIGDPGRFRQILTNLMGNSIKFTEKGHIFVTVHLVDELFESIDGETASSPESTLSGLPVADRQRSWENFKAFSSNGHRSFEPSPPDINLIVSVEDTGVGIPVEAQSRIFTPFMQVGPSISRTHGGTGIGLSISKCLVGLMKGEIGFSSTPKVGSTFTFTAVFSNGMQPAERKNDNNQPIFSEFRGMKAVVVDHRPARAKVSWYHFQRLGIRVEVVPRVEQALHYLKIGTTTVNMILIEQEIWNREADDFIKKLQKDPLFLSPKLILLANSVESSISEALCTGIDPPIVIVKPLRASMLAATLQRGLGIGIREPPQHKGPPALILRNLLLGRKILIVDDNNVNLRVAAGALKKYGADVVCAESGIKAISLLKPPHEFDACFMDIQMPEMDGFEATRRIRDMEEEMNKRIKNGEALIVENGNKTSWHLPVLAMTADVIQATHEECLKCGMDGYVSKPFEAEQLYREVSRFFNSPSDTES
In words: Agonist-activity to cytokinin receptor, optical density of TM182-AHK3 liquid culture. As to conditions: TM182-AHK3, examinee substance 100 μM, DOLU+Glu, 30° C. for 24 hours. On the set-up: expressed in transfected cells; host or cells: yeast strain TM182 carrying plasmid p415CYC-AHK3 (pHM-1 backbone, CYC1 promoter). In kind it is cell-based, yeast. On the procedure:
The transformed cells TM182-AHK2, TM182-AHK2Δ and TM182-AHK3 produced in the reference example 1 were inoculated in 200 ml of DOLU+Gal culture media and pre-cultured at 30° C. for 36 hours. The pre-cultured solutions were diluted with DOLU+Glu media as to become 0.100 as the optical density (OD600) and further the resultants were diluted with DOLU+Glu media at a dilution rate of 1/200 to obtain diluted pre-cultured solutions.
An assay plate was prepared by filling respective wells of a 96-well plate with 20 μl of solutions which were prepared by diluting DMSO solution (10 mM) of each examinee substance with DOLU+Glu medium at a dilution rate of 1/100, said solutions containing each examinee substance to be […]. […]
The diluted pre-cultured solutions were added in 200 μl each into the respective wells of both assay plates and cultured at 30° C. for 24 hours and then the optical density (OD620) of each well was measured by a plate reader. The agonist-activity of the examinee substances to the cytokinin receptor was detected by comparing the optical density measured in the testing sections to which the examinee substances were added with the optical density measured in the blank sections.

Take `CC1=CC(=O)CC(C)(C)[C@@]1(O)/C=C/C(C)=C\C(=O)O` [Compound A, Abscisic acid]: in assay [1], the “absorbance (OD600) of the culture solution” value came to 0.131. Moreover, on cytokinin receptor AHK3, the “optical density (OD620) of the culture solution” value is on record as 0.54.

For the compound `c1ccc(CNc2ncnc3nc[nH]c23)cc1` [Compound B, 6-Benzyl aminopurine], the “absorbance (OD600) of the culture solution” value in assay [1] amounted to 0.293. The “optical density (OD620) of the culture solution” value on cytokinin receptor AHK3 is 0.88.
